Measured values reported in EP4817688A2, “DEGRADING PKCß1 TO TREAT CANCER” (Mayo Foundation for Medical Education and Research, priority 2020, dated 2022).

Columns and labels:
Assay type in all cases: cell-based
MDAMB231 cells = assay: crystal violet (CV) proliferation assay, MDAMB231; conditions: Homo sapiens, MDA-MB-231, MDAMB231 (PKCβ1^high, Rb^positive) 2000 cells
Description: (§1) Cell proliferation rates were determined using crystal violet assays. One thousand cells per well were plated in 96 well tissue culture plates and treated the following day with a bifunctional compound or control for 7 days in replicates of 8. Cells were fixed with 25% glutaraldehyde for 10 minutes with shaking, washed 5 times with distilled water, stained with a 1% crystal violet solution (solubilized in 25% methanol) for 10 minutes, washed again 5 times and allowed to dry. De-staining was performed using […] sodium citrate in 50% ethanol followed by quantification using a 96 well spectrophotometer set at an absorbance of 550 nm.

BT549 cells = assay: crystal violet (CV) proliferation assay, BT549; conditions: Homo sapiens, BT-549, BT549 (PKCβ1^high, Rb^regative) 2000 cells
Description: as §1

MDAH-2774 cells = assay: crystal violet (CV) proliferation assay, MDAH-2774; conditions: Homo sapiens; MDAH-2774 (PKCβ1^high) 1000 cells/well; read-out: Approximate IC50
Description: as §1
(§2) Based on the potent anti-proliferative activity of ENDX-PROTACs TC-Pr-006, TC-Pr-007, TC-Pr -008, and TC-Pr -009 in TNBC cells, the efficacy of these compounds for inhibiting the growth of ovarian cancer cells was tested. This analysis utilized KURAMOCHI cells, which represent the high-grade serous subtype (the most malignant form that accounts for 70% of all ovarian cancers and associates with poor clinical outcome) and MDAH-2774 cells, which represent endometrioid ovarian cancer and accounts for 20% of all ovarian cancer. PKCβ1 was confirmed to be expressed in both ovarian cancer cell line models, with MDAH-2774 cells expressing higher amounts of PKCβ1 compared to KURAMOCHI cells (FIG. 5A). […]

KURAMOCHI cells = assay: crystal violet (CV) proliferation assay, KURAMOCHI; conditions: KURAMOSHI (PKCβ1^low) 1000 cells/well; read-out: Approximate IC50
Description: as §1, §2

MDAMB436 cells = assay: crystal violet (CV) proliferation assay, MDAMB436; conditions: Homo sapiens, MDA-MB-436, MDAMB436 (PKCβ1^low, Rb^negative) 2000 cells
Description: as §1

IC50 (MDAMB231 cells): > 5 µM | IC50 (BT549 cells): > 5 µM | IC50 (MDAMB436 cells): > 5 µM
Compound: CC/C(=C(\c1ccc(O)cc1)c1ccc(OCCNC)cc1)c1ccccc1 [ENDX, endoxifen, reference compound]
IC50 (MDAH-2774 cells): > 10 µM | IC50 (KURAMOCHI cells): > 10 µM
